Assay results published in patent US20260157378A1, “PROCESS FOR THE PREPARATION OF COMPOSITIONS BASED ON AMINO ACIDS AND PEPTIDES OF ANIMAL ORIGIN AND IODINE, COMPOSITIONS THUS OBTAINED AND USE THEREOF” (SICIT GROUP S.P.A., priority 2022, published 2026).

Legend:
[1] = system: lettuce plants (Lactuca sativa L.) var. Sant'Anna; assay: Application of the iodine formulation by root application (hydroponic nutritive solution), iodine content by optical emission spectrometry; format: in vivo; settings: 36 μg I/L of nutritive solution, harvested after 15 days, lettuce aerial part
Protocol: (§1) The seeds of the selected species were germinated within germination trays filled with a growth substrate composed by vernalized black peat and blond sphagnum peat (Agrofino Professional) and placed in a growth chamber.
(§2) The germinated seedlings were grown until the 2nd real leaf stage. Later, the growth substrate portion wherein the roots were confined was extracted and a gentle washing was carried out in order to remove the whole substrate and thus obtain a free root seedling ready to be placed in hydroponics, for the test of root application. The plants were transplanted in 0.35 L pots for the foliar application test.
The plants were grown in recipients containing 5 L of nutritive solution added with iodine salts obtained according to Example 1, or with the nutritive solution added with the formulation object of the patent. In both treatments, the applied iodine amount was the same: 36 μg I/L of nutritive solution. The plants were then grown in controlled conditions in a growth chamber: • 07.00-12.00: T 24° C., RH 60%, Light Int. 300 μmol/m^2/s; • 12.00-16.00: T 25° C., RH 60%, Light Int. 400 μmol/m^2/s; • 16.00-20.00: T 24° C., RH 60%, Light Int. 300 μmol/m^2/s; • 20.00-07.00: T 23° C., RH 60%, Light Int. 0 μmol/m^2/s.
After 15 days the plants were harvested and the aerial part was weighted. Each plant was washed with deionized water and dried in oven at 105° C. overnight. […]

[2] = system: lettuce plants (Lactuca sativa L.) var. Sant'Anna; assay: Application of the iodine formulation by foliar application (foliar spray), iodine content by optical emission spectrometry; format: in vivo; settings: foliar spray at transplantation and after 7 days, 30 μg iodine/plant, harvested after 15 days, lettuce aerial part
Protocol: as §1, §2
The plants were grown for 15 days in 0.35 L pots, containing universal topsoil based on vernalized black peat and blond sphagnum, in controlled conditions in a growth chamber: • 07.00-12.00: T 24° C., RH (Relative humidity) 60%, Light Int. 300 μmol/m^2/s; • 12.00-16.00: T 25° C., RH 60%, Light Int. 400 μmol/m^2/s; • 16.00-20.00: T 24° C., RH r 60%, Light Int. 300 μmol/m^2/s; • 20.00-07.00: T 23° C., RH 60%, Light Int. 0 μmol/m^2/s.
The formulations (iodine salts and formulation object of the invention) were applied during transplantation and after 7 days, by foliar spray, delivering 5 ml of applicative solution according to Example 1 to each plant. In both treatments, the applied iodine amount was the same: 30 μg/plant. […]

[I-].[K+] [KI salt, potassium iodide]
iodine absorption efficiency [1]: 46% | iodine content in the food [1]: 55 μg/100 g fresh weight | iodine absorption efficiency [2]: 40% | iodine content in the food [2]: 36 μg/100 g fresh weight
